According to a melting point compilation (Tetko et al.; mined from patent text by program, amines drawn as free bases though some values may be those of a salt):

Row | Compound | melting point [°C]
1 | COCOc1cc(/C=C/C(=O)/C=C/c2cc(OCOC)cc(OCOC)c2)cc(OCOC)c1 | 90 to 92
2 | COC(=O)C12COc3cc(C(F)(F)F)ccc3C1=NN(C(=O)Nc1ccc(Cl)cn1)C2 (stereo unspecified) | 196 to 198
3 | Cn1nc2c(N)nc3ccccc3c2c1CC(C)(C)C | 254 to 255
4 | CC(=O)c1ccc2c(c1)CC(NC(=O)C(F)(F)F)C2 (stereo unspecified) | 112 to 114
5 | C[C@H](NC(=O)c1cccnc1Oc1ccc(F)cc1)c1cccs1 | 59 to 61
6 | COc1cc(C(=O)NNC(=O)c2occ(-c3ccccc3)c2-c2ccccc2)ccc1OCc1ccccc1 | 203 to 204
7 | ON=C(c1ccncc1)c1ccc(F)cc1F | 155 to 200
8 | CNC(=O)Cc1c(-c2ccc(C)cc2)nc2n(C)c3ccccc3n12 | 251 to 252
9 | Cc1cc(C#N)nc(Oc2cc(C(F)(F)F)nn2C)c1 | 88
10 | CSC(=S)C1(c2ccccn2)CCCCS1 (stereo unspecified) | 79
11 | Cc1c(Nc2c(C#N)cnc3sc(-c4cccc(CN(C)C)c4)cc23)ccc2[nH]ccc12 | 227 to 229
12 | Cc1nc(-c2ccc(C#N)cc2)oc1C(=O)NCCCCN1CCC(c2ccc3c(c2OCCO)CCCC3)CC1 | 109 to 111
13 | O=CNCc1ncc(-c2ccccc2)o1 | 225 to 228
14 | C=CCN1C(=O)CN(c2ccc(OCc3ccccc3)cc2)C1=S | 130
15 | CCCC(=O)c1c[nH]c2c(OC)csc2c1=O | 222 to 225
16 | CC(C)=CCc1c(O)n2c3c(nc2n(Cc2ccccc2)c1=O)N(C)CN(C)C3=O | 153 to 154
17 | CC(=O)OC1(C(C)=O)C(C)CC2C3CC(C)C4=CC(=O)C=CC4(C)C3(F)C(O)CC21C (stereo unspecified) | 291 to 293
18 | O=C(Oc1ccccc1)N1CCC(Sc2ccncc2)CC1 | 102 to 104
19 | COC(=O)Nc1nc(C)c(C(=O)c2sc(NC(=O)OC)nc2C)s1 | 188 to 189
20 | Cn1c(CO)cc2ccccc21 | 92.8
21 | CN1C(=O)CC(=O)N(C)c2ccccc21 | 240 to 242

Row | Compound | melting point [°C]
22 | C=C(C)C1(CC(C)C)CCN(C(Cc2ccccc2)C(=O)NC)C1=O (stereo unspecified) | 91 to 92
23 | CCCc1nn(C)c2c(Oc3ccc(F)cc3)nc(-c3ccccc3)nc12 | 126 to 128
24 | CCCCCCCCOc1ccc(-c2cc(F)cc(F)c2F)cc1 | 31
25 | COc1cc(-c2csc(CN(C)C(=O)OC(C)(C)C)n2)cc(OC)c1OC(C)=O | 135 to 137
26 | Cc1cc(S(=O)(=O)NC2CCCCC2)c2c(C)ccc(C(C)C)cc1-2 | 108 to 109
27 | CC(=O)N1CCN(C(=O)c2cc3ccnc(Cl)c3[nH]2)CC1 | 179 to 184
28 | CCNc1nc(C#N)c(C#N)nc1-c1cccc(Br)c1 | 127 to 128
29 | Cc1nc(-c2cc(Cl)ccc2Cl)n2c1nnc1cc(F)ccc12 | 186 to 190
30 | COc1ccc(Nc2ccc(OC)c3ccccc23)cc1C(=O)O | 153 to 154
31 | CCCCN(C(=S)NC)c1ccc(Cl)nc1 | 129 to 130
32 | CCCn1c(=O)c2c(nc(/C=C/c3ccc(Cl)c(Cl)c3)n2C)n(CCC)c1=O | 125 to 136
33 | COc1cn(-c2cc(F)c(Br)cc2F)nc(-c2ccnn2-c2ccccc2)c1=O | 211 to 213
34 | CC(C)(C)OC(=O)NC1CCCC(NC(=O)c2ccc(-c3[nH]nc4c3C(=O)c3c(NC(=O)NN5CCOCC5)cccc3-4)s2)C1 (stereo unspecified) | > 300
35 | c1cc2ccsc2cn1 | < 50
36 | Cc1ccc(NS(=O)(=O)c2ccccc2)c(C(=O)O)c1 | 197 to 198
37 | CNc1ccc(N2C(=O)c3ccccc3C2=O)c(C)c1 | 159 to 161
38 | COC(=O)c1cc2nc(-c3ccccc3)nn2cc1F | 162 to 168
39 | O=S(=O)(c1ccccc1)n1c2ccc(Br)cc2c2c(Cl)ccnc21 | 212 to 214
40 | CC(=O)N1c2ccccc2Sc2ccccc21 | 210 to 211
41 | O=S(=O)(ON=C1CCCc2ccccc21)c1ccc(O)cc1 | 141 to 142
